Experimental data reported in patent publication US5786508A, “Substituted kynurenines and process for their preparation” (Pharmacia & Upjohn S.p.A., priority 1995, dated 1998).

Columns and labels:
[1] = tested on: Kynurenine Aminotransferase (KAT); assay: Determination of KAT activity inhibition in rat brain homogenate; assay type: biochemical; conditions: 2 μM [3H]KYN, 2 h at 37° C., pH 8.0
Procedure: A) Determination of KAT activity inhibition in rat brain homogenate
KAT was measured as described in detail by Okuno et al. (Measurement of rat brain kynurenine amino-transferase at physiological kynurenine concentrations, J. Neurochem., 57, 533-540, 1991).
Briefly, animals were killed by decapitation and the brain tissue was homogenized (1:5 v/w in 5 mM Tris-acetate buffer, pH 8.0, containing 10 mM 2-mercaptoethanol and 50 μM pyridoxal 5'-phosphate) and incubated for 2 h at 37° C. in the presence of 2 μM [^3 H]KYN (30 nCi), 1 mM 2-oxoglutarate and 70 μM pyridoxal 5'-phosphate in 150 mM Tris-acetate buffer, pH 8.0. The reaction was terminated by the addition of trichloroacetic acid.
Newly synthesized [^3 H]KYNA was separated from [^3 H]KYN on a Dowex 50W cation-exchange column and quantitated by liquid scintillation spectrometry. Blanks were obtained by using tissue which had been heat-deactivated for 10 minutes in a boiling water bath.

KYNA production = assay: Determination of inhibition of KYNA production by rat tissue slices (cerebral cortex); assay type: cell-based; conditions: 50 μM L-KYN, 2 h at 37° C.
Procedure: B) Determination of inhibition of KYNA production by rat tissue slices
Routinely, slices (base 1×1 mm; weight 1.5 mg/slice) from the cerebral cortex were separated on ice and transferred to culture wells (10 slices/well) containing 1 ml of oxygenated Krebs-Ringer buffer (NaCl, 118.5 mM; KCl, 4.75 mM; CaCl2, 1.77 mM; MgSO4, 1.18 mM; NaH2 PO4, 12.9 mM; NaH2 PO4, 3 mM; glucose, 5 mM; pH 7.4). Subsequently, the tissue was preincubated for 10 min at 37° C. and incubated further for 2 h at 37° C., in the presence of 50 μM L-KYN in an oxygenated chamber, on a shaking water bath. Compounds of the present invention were included in the incubation mixture as needed. Following incubation, the culture wells were immediately placed on ice, and the slices were rapidly separated from the incubation medium. For KYNA determination, 1 ml samples of the incubation medium were immersed in a boiling water bath for 10 min, and the precipitated proteins were removed by centrifugation (8,730×g, 10 min). The supernatants were diluted (1:1, v/v) with 0.2M HCl and applied to Dowex 50W (hydrogen form, Sigma) cation-exchange columns (0.5×2 cm). Subsequently, the columns were washed with 1 ml of 0.1M HCl and 1 ml of water, and the fraction containing KYNA was eluted with 2 ml of water. The eluates were applied to a 3-μm C18 HPLC column (100×3.2 internal diameter, Bioanalytical Systems, West Lafayette, Ind., U.S.A.), and KYNA was isocratically eluted with a mobile phase containing 50 mM ammonium acetate and 5% methanol at a flow rate of 0.5 ml/min. Under these conditions, the retention time of KYNA was ≈7 min.
Data were recorded and calculated with a Hewlett-Packard 3390A integrator connected to a model 160 UV absorbance detector (Beckman Instruments, Berkeley, Calif., U.S.A.) set at 340 nm.

KAT = biological target: T1, KAT (Rattus norvegicus, UniProt Q08415); assay: Kinetic analysis of KAT inhibitors using a partially purified enzyme preparation; assay type: biochemical; conditions: KYN 2 μM to 2 mM; double reciprocal plots; pyruvate 1 mM; pH 8.0, 37° C.
T1 construct: a preparation of partially purified enzyme; from tissue; the cited method purifies from rat kidney and brain (own knowledge)
T1 sequence (Q08415 1-423): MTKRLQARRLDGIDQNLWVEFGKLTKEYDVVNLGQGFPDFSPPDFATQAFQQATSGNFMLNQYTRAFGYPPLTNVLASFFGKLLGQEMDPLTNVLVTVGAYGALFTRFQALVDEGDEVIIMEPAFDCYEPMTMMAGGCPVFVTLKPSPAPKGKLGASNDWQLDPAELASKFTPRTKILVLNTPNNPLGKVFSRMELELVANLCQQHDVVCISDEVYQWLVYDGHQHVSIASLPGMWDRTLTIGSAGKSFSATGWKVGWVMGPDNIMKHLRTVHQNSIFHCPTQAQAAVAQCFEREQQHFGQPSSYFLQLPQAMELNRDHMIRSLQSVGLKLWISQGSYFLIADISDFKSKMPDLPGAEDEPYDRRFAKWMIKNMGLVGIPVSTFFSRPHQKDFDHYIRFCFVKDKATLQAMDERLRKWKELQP
Procedure: C) Kinetic analysis of KAT inhibitors using a partially Purified enzyme Preparation (Brain Research, 534, 37-44 (1990)
The reaction mixture contained [^3 H]KYN (30 nCi), diluted with unlabelled KYN to yield a final concentration of 2 μM, 1 mM pyruvate, 70 μM pyridoxal 5'-phosphate, 150 mM Tris-acetate buffer, pH 8.0, and a preparation of partially purified enzyme in a total volume of 0.1 ml. Test compounds were included in the incubation mixture as needed. The reaction was started by the addition of pyruvate. After incubation for 2 h at 37° C., the reaction was terminated by the addition of 14 μl of 50% (w/w) trichloroacetic acid. Subsequently, 1 ml of 0.1M HCl was added and denaturated protein was removed by a 4-min centrifugation in a Beckman 52B microfuge. 1 ml of the resulting supernatant was applied to a Dowex 50W column (0.5×1.0 cm; H^+ form) and washed with 1 ml of 0.1M HCl, followed by 1 ml of distilled water. [^3 H]KYNA was eluted with 2 ml of distilled water and quantitated by liquid scintillation spectrometry. Enzyme measurements were performed in triplicate samples. […]
Kinetic experiments were performed using the standard KAT assay described above by varying the concentration of KYN between 2 μM and 2 mM in the absence or presence of set concentrations of test compounds. Double reciprocal plots were constructed and lines of best fit were determined by linear regression analysis.

[2] = tested on: glycine modulatory site of the N-methyl-D-aspartate (NMDA) receptor complex; conditions: J. Neurochem., 52, 1319-1328, 1989; in words; cited from earlier work

| SMILES | KYNA production % of inhibition ([1]; 100 μM) [%] | KYNA production % of inhibition ([1]; 1000 μM) [%] | Ki (KAT) [µM] | Km (KAT) [µM] | inhibition at 100 µM (KYNA production) [%] | inhibition at 1000 µM (KYNA production) [%] | inhibition at 300 µM (KYNA production; at 300 μM (footnote *)) [%] | affinity to the glycine modulatory site of the NMDA receptor complex [2] |
| --- | --- | --- | --- | --- | --- | --- | --- | --- |
| Nc1ccc(Cl)cc1C(=O)CC(N)C(=O)O (centres unmarked) [FCE 27813, 2-amino-4-(2-amino-5-chlorophenyl)-4-oxo-butyric acid] | 45 | 81 | 88 |  | 63 | 84 |  |  |
| CCc1ccc(N)c(C(=O)CC(N)C(=O)O)c1 (centres unmarked) [FCE 28026, 2-amino-4-(2-amino-5-ethylphenyl)-4-oxo-butyric acid] | 30 | 78 |  |  | 8 | 49 |  |  |
| CCCc1ccc(N)c(C(=O)CC(N)C(=O)O)c1 (centres unmarked) [FCE 28244, 2-amino-4-(2-amino-5-n-propylphenyl)-4-oxo-butyric acid] | 50 | 72 |  |  | 27 | 70 |  |  |
| CC(C)c1ccc(N)c(C(=O)CC(N)C(=O)O)c1 (centres unmarked) [FCE 28441, 2-amino-4-(2-amino-5-isopropylphenyl)-4-oxo-butyric acid] | 45 | 72 |  |  | 5 | 54 |  |  |
| O=C(O)c1cc(=O)c2ccccc2[nH]1 [KYNA, Kynurenic Acid] |  |  |  |  |  |  |  | particularly high affinity |
| Nc1ccccc1C(=O)C[C@H](N)C(=O)O [L-kynurenine, reference compound] |  |  |  | 369 |  |  |  |  |

The next lines start with results.

| KYNA production % of inhibition ([1]; 100 μM) [%] | KYNA production % of inhibition ([1]; 1000 μM) [%] | Ki (KAT) [µM] | Km (KAT) [µM] | SMILES | inhibition at 100 µM (KYNA production) [%] | inhibition at 1000 µM (KYNA production) [%] | inhibition at 300 µM (KYNA production; at 300 μM (footnote *)) [%] | affinity to the glycine modulatory site of the NMDA receptor complex [2] |
| --- | --- | --- | --- | --- | --- | --- | --- | --- |
| 13 | 51 |  |  | Cc1ccc(N)c(C(=O)CC(N)C(=O)O)c1 (centres unmarked) [FCE 27946, 2-amino-4-(2-amino-5-methylphenyl)-4-oxo-butyric acid] |  | 64 | 50 |  |
| 30 | 74 |  |  | Nc1ccc(F)cc1C(=O)CC(N)C(=O)O (centres unmarked) [FCE 27949, 2-amino-4-(2-amino-5-fluorophenyl)-4-oxo-butyric acid] | 48 | 70 |  |  |
| 47 | 77 |  |  | Nc1ccc(C2CCCCC2)cc1C(=O)CC(N)C(=O)O (centres unmarked) [FCE 28263, 2-amino-4-(2-amino-5-cyclohexylphenyl)-4-oxo-butyric acid] | 28 | 45 |  |  |
| 52 | 83 |  |  | Nc1ccc(Br)cc1C(=O)CC(N)C(=O)O (centres unmarked) [FCE 28264, 2-amino-4-(2-amino-5-bromophenyl)-4-oxo-butyric acid] | 58 | 72 |  |  |
|  | 31 |  |  | Nc1ccc(Cl)cc1C(=O)C[C@@H](N)C(=O)O [FCE 28442, (R)-(+)-2-amino-4-(2-amino-5-chlorophenyl)-4-oxo-butyric acid] |  | 45 |  |  |
| 61 | 89 |  |  | Nc1ccc(Cl)cc1C(=O)C[C@H](N)C(=O)O [FCE 28443, (S)-(-)-2-amino-4-(2-amino-5-chlorophenyl)-4-oxo-butyric acid] | 67 | 91 |  |  |
